Consider twelve molecules from patent US7405240B2, “Substituted cyclopentanes or cyclopentanones as therapeutic agents” (Allergan, Inc., priority 2006, dated 2008).

For assay [1], the target named is T1, hEP4 (Homo sapiens, UniProt P35408). The assay is described as follows: FLIPR calcium signal, hEP4. In kind it is cell-based. Further details: expressed in transfected cells; host or cells: HEK-293(EBNA). Conditions: HEK-293(EBNA) cells expressing hEP4/Gqs5. The procedure: (§1) Methods for FLIPR™ Studies
(§2) HEK-293(EBNA) cells, stably expressing one type or subtype of recombinant human prostaglandin receptors (prostaglandin receptors expressed: hDP/Gqs5; hEP1; hEP2/Gqs5; hEP3A/Gqi5; hEP4/Gqs5; hFP; hIP; hTP), were cultured in 100 mm culture dishes in high-glucose DMEM medium containing 10% fetal bovine serum, 2 mM 1-glutamine, 250 μg/ml geneticin (G418) and 200 μg/ml hygromycin B as selection markers, and 100 units/ml penicillin G, 100 μg/ml streptomycin and 0.25 μg/ml amphotericin B.
(§3) Cells were seeded at a density of 5×10^4 cells per well in Biocoat® Poly-D-lysine-coated black-wall, clear-bottom 96-well plates (Becton-Dickinson) and allowed to attach overnight in an incubator at 37° C. Cells were then washed two times with HBSS-HEPES buffer (Hanks Balanced Salt Solution without bicarbonate and phenol red, 20 mM HEPES, pH 7.4) using a Denley Cellwash plate washer (Labsystems). After 45 minutes of dye-loading in the dark, using the calcium-sensitive dye Fluo-4 AM at a final concentration of 2 μM, plates were washed four times with HBSS-HEPES buffer to remove excess dye leaving 100 μl in each well. Plates were re-equilibrated to 37° C. for a few minutes.
(§4) Cells were excited with an Argon laser at 488 nm, and emission was measured through a 510-570 nm bandwidth emission filter (FLIPR™, Molecular Devices, Sunnyvale, Calif.). Drug solution was added in a 50 μl volume to each well to give the desired final concentration. The peak increase in fluorescence intensity was recorded for each well. On each plate, four wells each served as negative (HBSS-HEPES buffer) and positive controls (standard agonists: BW245C (hDP); PGE2 (hEP1; hEP2/Gqs5; hEP3A/Gqi5; hEP4/Gqs5); PGF2α (hFP); carbacyclin (hIP); U-46619 (hTP), depending on receptor). The peak fluorescence change in each drug-containing well was then expressed relative to the controls.
(§5) Compounds were tested in a high-throughput (HTS) or concentration-response (CoRe) format. In the HTS format, forty-four compounds per plate were examined in duplicates at a concentration of 10^−5 M. To generate concentration-response curves, four compounds per plate were tested in duplicates in a concentration range between 10^−5 and 10^−11 M. The duplicate values were averaged. In either, HTS or CoRe format each compound was tested on at least 3 separate plates using cells from different passages to give an n≧3.

Assay [2] has as its target T1, hEP4. The experiment in a line: Radioligand binding, EP4 receptor. The arrangement: expressed in transfected cells; host or cells: HEK-293. Particulars: [3H]PGE2, HEK-293 cells expressing EP4. The procedure:
(§6) HEK-293 cells stably expressing the human or feline FP receptor, or EP1, EP2, or EP4 receptors were washed with TME buffer, scraped from the bottom of the flasks, and homogenized for 30 sec using a Brinkman PT 10/35 polytron. TME buffer was added to achieve a final 40 ml volume in the centrifuge tubes (the composition of TME is 100 mM TRIS base, 20 mM MgCl2, […]; 10N HCl is added to achieve a pH of 7.4).
(§7) The cell homogenate was centrifuged at 19000 r.p.m. for 20 min at 4° C. using a Beckman Ti-60 rotor. The resultant pellet was resuspended in TME buffer to give a final 1 mg/ml protein concentration, as determined by Biorad assay. Radioligand binding competition assays vs. [3H-] 17-phenyl PGF2, (5 nM) were performed in a 100 μl volume for 60 min. Binding reactions were started by adding plasma membrane fraction. The reaction was terminated by the addition of 4 ml ice-cold TRIS-HCl buffer and rapid filtration through glass fiber GF/B filters using a Brandel cell harvester. The filters were washed 3 times with ice-cold buffer and oven dried for one hour.
(§8) [^3H-] PGE2 (specific activity 180 Ci mmol) was used as the radioligand for EP receptors. [^3H] 17-phenyl PGF2, was employed for FP receptor binding studies. Binding studies employing EP1, EP2, EP4 and FP receptors were performed in duplicate in at least three separate experiments. A […] assay volume was used. Incubations were for 60 min at 25° C. and were terminated by the addition of 4 ml of ice-cold 50 mM TRIS-HCl, followed by rapid filtration through Whatman GF/B filters and three additional 4 ml washes in a cell harvester (Brandel). Competition studies were performed using a final concentration of 5 nM [^3H]-PGE2, or 5 nM [^3H] 17-phenyl PGF2, and non-specific binding determined with 10^−5M of unlabeled PGE2, or 17-phenyl PGF2α, according to receptor subtype studied.

Assay [3] concerns the target T2, hEP2 (Homo sapiens, UniProt P43116). The experiment in a line: cAMP assay, hEP2. It counts as cell-based. On the technique in general: Cyclic AMP is a second messenger, typically raised through Gs and lowered through Gi signalling.
The target of assay [4] is T2, hEP2. The experiment in a line: FLIPR calcium signal, hEP2. It counts as cell-based. Further details: expressed in transfected cells; host or cells: HEK-293(EBNA). Conditions: HEK-293(EBNA) cells expressing hEP2/Gqs5. The procedure:
as §1, §2, §3, §4, §5

Assay [5] deals with T2, hEP2. The experiment in a line: Competition binding, [3H]PGE2, human EP2 receptors. The arrangement: expressed in transfected cells; host or cells: HEK 293. Conditions: [3H]PGE2, HEK 293 cells stably expressing human EP2; read-out: hEP2 Ki. The procedure: Competition binding experiments were performed in a medium containing Hank's balanced salt solution, Hepes 20 mM, pH 7.3, membranes (˜60 μg protein) or 2×10^5 cells from HEK 293 cells stably expressing human EP2 receptors, [^3H]PGE2 (10 nM) and various concentrations of test compounds in a total volume of 300 μl. Reaction mixtures were incubated at 23° C. for 60 min, and were filtered over Whatman GF/B filters under vacuum. Filters were washed three times with 5 ml ice-cold buffer containing 50 mM Tris/HCl (pH 7.3). Non-specific binding was estimated in the presence of excess unlabeled PGE2 (10 μM). Binding data fitted to the binding model for a single class of binding sites, using nonlinear regression analysis. IC50 values thus obtained were converted to Ki using the equation of Ki=(IC50/(1+[L]/KD) where [L] represents PGE2 concentration (10 nM) and KD the dissociation constant for [^3H]PGE2 at human EP2 receptors (40 nM).
as §6, §7, §8

T2 sequence (P43116 whole entry): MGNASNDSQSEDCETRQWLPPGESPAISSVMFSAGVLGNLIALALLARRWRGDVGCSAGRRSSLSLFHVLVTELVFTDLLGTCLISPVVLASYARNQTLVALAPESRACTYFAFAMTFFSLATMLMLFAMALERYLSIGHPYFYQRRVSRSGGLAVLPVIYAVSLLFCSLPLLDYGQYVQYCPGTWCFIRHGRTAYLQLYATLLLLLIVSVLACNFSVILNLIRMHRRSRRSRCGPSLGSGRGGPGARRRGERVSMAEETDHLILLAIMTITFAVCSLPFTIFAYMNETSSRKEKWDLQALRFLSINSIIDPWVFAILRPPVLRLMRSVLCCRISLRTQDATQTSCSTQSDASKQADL
T1 sequence (P35408 whole entry): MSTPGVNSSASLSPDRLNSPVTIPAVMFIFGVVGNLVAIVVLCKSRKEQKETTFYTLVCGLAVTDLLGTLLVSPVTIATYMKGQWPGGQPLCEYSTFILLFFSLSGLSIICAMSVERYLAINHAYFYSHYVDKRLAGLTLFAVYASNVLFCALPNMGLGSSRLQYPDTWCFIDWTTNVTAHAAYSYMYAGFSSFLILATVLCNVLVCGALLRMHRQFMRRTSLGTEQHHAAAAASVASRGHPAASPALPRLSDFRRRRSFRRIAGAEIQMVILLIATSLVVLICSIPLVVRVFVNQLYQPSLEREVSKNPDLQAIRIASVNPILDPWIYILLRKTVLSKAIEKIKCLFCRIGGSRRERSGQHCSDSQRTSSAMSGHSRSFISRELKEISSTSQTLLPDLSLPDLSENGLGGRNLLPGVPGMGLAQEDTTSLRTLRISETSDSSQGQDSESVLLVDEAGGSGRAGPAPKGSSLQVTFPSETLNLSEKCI

In general, EC50 refers to the midpoint of the concentration-response curve. A word on the Ki: it is the equilibrium dissociation constant of an inhibitor or competing ligand from its target. On to `Cc1cccc(OC[C@@H]2[C@@H](C/C=C\CCCC(=O)O)[C@H](Cl)C[C@H]2O)c1` [Example 25, (Z)-7-((1R,2S,3R,5R)-5-Chloro-3-hydroxy-2-m-tolyloxymethyl-cyclopentyl)-hept-5-enoic acid], for which the EC50 came out at 13000 nM in assay [1], 9 nM in assay [3] and 112 nM in assay [4]. In addition, the Ki is 1840 nM in assay [2] and 155 nM in assay [5].
With `CC(C)c1cccc(OC[C@@H]2[C@@H](C/C=C\CCCC(=O)O)[C@H](Cl)C[C@H]2O)c1` [Example 26, (Z)-7-[(1R,2S,3R,5R)-5-Chloro-3-hydroxy-2-(3-isopropyl-phenoxymethyl)-cyclopentyl]-hept-5-enoic acid], the EC50 is 6500 nM in assay [1], 7 nM in assay [3] and 41 nM in assay [4]. The Ki stood at 967 nM in assay [2] and 151 nM in assay [5].
Turning to `CC(C)(C)c1cccc(OC[C@@H]2[C@@H](C/C=C\CCCC(=O)O)[C@H](Cl)C[C@H]2O)c1` [Example 27, (Z)-7-[(1R,2S,3R,5R)-2-(3-tert-Butyl-phenoxymethyl)-5-chloro-3-hydroxy-cyclopentyl]-hept-5-enoic acid], the EC50 came to 16000 nM in assay [1], 54 nM in assay [3] and 189 nM in assay [4]. Moreover, the Ki stood at 908 nM in assay [2] and 497 nM in assay [5].
Taken in the same sequence, the figures for `COc1cccc(OC[C@@H]2[C@@H](C/C=C\CCCC(=O)O)[C@H](Cl)C[C@H]2O)c1` [Example 28, (Z)-7-[(1R,2S,3R,5R)-5-Chloro-3-hydroxy-2-(3-methoxy-phenoxymethyl)-cyclopentyl]-hept-5-enoic acid] were 3720 nM, 20 nM, 245 nM, 1680 nM and 274 nM.
Consider `O=C(O)CCC/C=C\C[C@@H]1[C@@H](COc2cccc(OC(=O)c3ccccc3)c2)[C@H](O)C[C@H]1Cl` [Example 29, 3-[(1S,2R,3R,5R)-2-((Z)-6-carboxy-hex-2-enyl)-3-chloro-5-hydroxy-cyclopentylmethoxy]-phenyl benzoate], for which the concentration for a half-maximal effect (EC50) in assay [1] came to 7680 nM; in assay [3] it was 139 nM; in assay [4], 1580 nM. Moreover, the Ki was determined as 2380 nM in assay [2] and 568 nM in assay [5].
Take `O=C(O)CCC/C=C\C[C@@H]1[C@@H](COc2cccc(O)c2)[C@H](O)C[C@H]1Cl` [Example 30, (Z)-7-[(1R,2S,3R,5R)-5-Chloro-3-hydroxy-2-(3-hydroxy-phenoxymethyl)-cyclopentyl]-hept-5-enoic acid]: the EC50 amounted to 1170 nM in assay [1], 24 nM in assay [3] and 111 nM in assay [4]. Also, the figures for the inhibitory constant (Ki) in assay [2] and in assay [5] were 5060 nM and 603 nM, respectively.
The matching figures for `Cc1cccc(OC[C@@H]2[C@@H](C/C=C\CCCC(=O)O)[C@H](Cl)C[C@H]2O)c1C` [Example 32, (Z)-7-[(1R,2S,3R,5R)-5-Chloro-2-(2,3-dimethyl-phenoxymethyl)-3-hydroxy-cyclopentyl]-hept-5-enoic acid]: > 10000 nM, 3 nM, 61 nM, 1320 nM and 122 nM.
The matching figures for `Cc1ccc(C)c(OC[C@@H]2[C@@H](C/C=C\CCCC(=O)O)[C@H](Cl)C[C@H]2O)c1` [Example 34, (Z)-7-[(1R,2S,3R,5R)-5-Chloro-2-(2,5-dimethyl-phenoxymethyl)-3-hydroxy-cyclopentyl]-hept-5-enoic acid]: > 10000 nM, 2.4 nM, 51 nM, 1100 nM and 172 nM.
`Cc1cccc(C)c1OC[C@@H]1[C@@H](C/C=C\CCCC(=O)O)[C@H](Cl)C[C@H]1O` [Example 35, (Z)-7-[(1R,2S,3R,5R)-5-Chloro-2-(2,6-dimethyl-phenoxymethyl)-3-hydroxy-cyclopentyl]-hept-5-enoic acid]: the values for the EC50 in assay [1], in assay [3] and in assay [4] were > 10000 nM, 3350 nM and 5580 nM, respectively. In addition, the Ki is > 10000 nM in assay [2] and 4320 nM in assay [5].
Turning to `Cc1ccc(OC[C@@H]2[C@@H](C/C=C\CCCC(=O)O)[C@H](Cl)C[C@H]2O)cc1C` [Example 37, (Z)-7-[(1R,2S,3R,5R)-5-Chloro-2-(3,4-dimethyl-phenoxymethyl)-3-hydroxy-cyclopentyl]-hept-5-enoic acid], the EC50 in assay [1] is > 10000 nM; in assay [3] it was 27 nM; in assay [4], 618 nM. The values for the Ki in assay [2] and in assay [5] were 1100 nM and 50 nM, respectively.
The matching figures for `Cc1cc(OC[C@@H]2[C@@H](C/C=C\CCCC(=O)O)[C@H](Cl)C[C@H]2O)cc(C)c1C` [Example 38, (Z)-7-[(1R,2S,3R,5R)-5-Chloro-3-hydroxy-2-(3,4,5-trimethyl-phenoxymethyl)-cyclopentyl]-hept-5-enoic acid]: > 10000 nM, 1.5 nM, 2.3 nM, 606 nM and 25 nM.
The matching figures for `Cc1cc(OC[C@@H]2[C@@H](C/C=C\CCCC(=O)O)[C@H](Cl)C[C@H]2O)cc(C)c1Cl` [Example 39, (Z)-7-[(1R,2S,3R,5R)-5-Chloro-2-(4-chloro-3,5-dimethyl-phenoxymethyl)-3-hydroxy-cyclopentyl]-hept-5-enoic acid]: > 10000 nM, 0.7 nM, 10 nM, 281 nM and 11 nM.
